Source: PubChem BioAssay AID248 (DTP/NCI, 2004)
“And” between values parts separate entries of the source, which are not always exact repeats. Equal values may be shown once. Toxic doses and inconclusive results are not listed. Square brackets hold non-standard residues; d marks the D form. Peptide text beside a SMILES is read from it. * marks the point of attachment. ξ: configuration not given here. ξL = CC(C)CC(N)C(=O)O; ClAc = O=C(CCl)*

Test system: L1210 leukemia ip in BDF1 mice, survival T/C
Experiment: NCI In Vivo Anticancer Drug Screen. Data for tumor model L1210 Leukemia (intraperitoneal) in B6D2F1 (BDF1) mice
Conditions: endpoint: mean survival time, higher = longer survival
In short: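 Tumor cells were implanted, animals were treated, and survival was followed. The result divides the treated measurement by the vehicle-control measurement.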

[1] = dose: 100.0 mg/kg/injection, schedule: Q01DX009 (ip), vehicle: saline
[2] = dose: 200.0 mg/kg/injection, schedule: Q01DX009 (ip), vehicle: saline
[3] = dose: 25.0 mg/kg/injection, schedule: Q01DX009 (ip), vehicle: saline with Tween-80
[4] = dose: 50.0 mg/kg/injection, schedule: Q01DX009 (ip), vehicle: saline with Tween-80
[5] = dose: 100.0 mg/kg/injection, schedule: Q01DX009 (ip), vehicle: saline with Tween-80
[6] = dose: 100.0 mg/kg/injection, schedule: Q04DX003 (ip), vehicle: saline with Tween-80
[7] = dose: 200.0 mg/kg/injection, schedule: Q04DX003 (ip), vehicle: saline with Tween-80
[8] = dose: 400.0 mg/kg/injection, schedule: Q04DX003 (ip), vehicle: saline with Tween-80
[9] = dose: 100.0 mg/kg/injection, schedule: Q04DX002 (ip), vehicle: Klucel (hydroxypropylcellulose) (HPC)
[10] = dose: 200.0 mg/kg/injection, schedule: Q04DX002 (ip), vehicle: Klucel (hydroxypropylcellulose) (HPC)
[11] = dose: 400.0 mg/kg/injection, schedule: Q04DX002 (ip), vehicle: Klucel (hydroxypropylcellulose) (HPC)
[12] = dose: 200.0 mg/kg/injection, schedule: Q01DX009 (ip), vehicle: saline with Tween-80
[13] = dose: 100.0 mg/kg/injection, schedule: Q01DX001 (ip), vehicle: saline
[14] = dose: 200.0 mg/kg/injection, schedule: Q01DX001 (ip), vehicle: saline
[15] = dose: 400.0 mg/kg/injection, schedule: Q01DX001 (ip), vehicle: saline
[16] = dose: 100.0 mg/kg/injection, schedule: Q01DX009 (ip), vehicle: Klucel (hydroxypropylcellulose) (HPC)
[17] = dose: 200.0 mg/kg/injection, schedule: Q01DX009 (ip), vehicle: Klucel (hydroxypropylcellulose) (HPC)
[18] = dose: 400.0 mg/kg/injection, schedule: Q01DX009 (ip), vehicle: Klucel (hydroxypropylcellulose) (HPC)
[19] = dose: 25.0 mg/kg/injection, schedule: Q01DX009 (ip), vehicle: Klucel (hydroxypropylcellulose) (HPC)
[20] = dose: 25.0 mg/kg/injection, schedule: Q04DX003 (ip), vehicle: Klucel (hydroxypropylcellulose) (HPC)
[21] = dose: 50.0 mg/kg/injection, schedule: Q01DX009 (ip), vehicle: Klucel (hydroxypropylcellulose) (HPC)
[22] = dose: 50.0 mg/kg/injection, schedule: Q04DX003 (ip), vehicle: Klucel (hydroxypropylcellulose) (HPC)
[23] = dose: 100.0 mg/kg/injection, schedule: Q04DX003 (ip), vehicle: Klucel (hydroxypropylcellulose) (HPC)
[24] = dose: 200.0 mg/kg/injection, schedule: Q04DX003 (ip), vehicle: Klucel (hydroxypropylcellulose) (HPC)
[25] = dose: 400.0 mg/kg/injection, schedule: Q04DX003 (ip), vehicle: Klucel (hydroxypropylcellulose) (HPC)

## Nc1nc(=O)n(CCCOc2ccc([N+](=O)[O-])c(Cl)c2)cc1-c1ccc(Cl)c(Cl)c1
dose: 25.0 mg/kg/injection, schedule: Q01DX001 (ip), vehicle: saline with Tween-80
  T/C: 95 % of control
dose: 50.0 mg/kg/injection, schedule: Q01DX001 (ip), vehicle: saline with Tween-80
  T/C: 96 % of control
dose: 100.0 mg/kg/injection, schedule: Q01DX001 (ip), vehicle: saline with Tween-80
  T/C: 88 % of control

## O=C(O)C1C2c3ccccc3C(C1C(=O)O)[n+]1ccccc12 (stereo not drawn)
[1]
  T/C: 95 % of control
[2]
  T/C: 103 % of control
dose: 400.0 mg/kg/injection, schedule: Q01DX009 (ip), vehicle: saline
  T/C: 94 % of control

## COC12CCCC1S(=O)(=O)C2 (stereo not drawn)
[3]
  T/C: 102 % of control
[4]
  T/C: 98 % of control

## CC(C)CC(NC(=O)CCl)C(=O)NCC(=O)O (stereo not drawn) (ClAc-[ξL]-Gly-OH)
[5]
  T/C: 94 % of control
[6]
  T/C: 101 % of control
[7]
  T/C: 95 % of control
[8]
  T/C: 103 % of control

## O=C1CCC(=O)N1c1ccccc1
[9]
  T/C: 96 % of control
[10]
  T/C: 92 % of control
[11]
  T/C: 92 % of control

## CCSC(=O)N1c2ccc(C)cc2C=CC1C#N (stereo not drawn)
[5]
  T/C: 93 % of control
[6]
  T/C: 90 % of control
[12]
  T/C: 104 % of control
[7]
  T/C: 89 % of control
[8]
  T/C: 95 % of control

## O=C1c2cc(-c3ccccc3)c(-c3ccccc3)cc2C(c2ccccc2)(c2ccccc2)C1(Cl)Cl
[4]
  T/C: 100 % of control
[5]
  T/C: 100 % of control
[12]
  T/C: 95 % of control

## CC(=O)NS(=O)(=O)c1ccc(N)cc1
[5]
  T/C: 94 % of control
[6]
  T/C: 98 % of control
[12]
  T/C: 94 % of control
[7]
  T/C: 98 % of control
dose: 400.0 mg/kg/injection, schedule: Q01DX009 (ip), vehicle: saline with Tween-80
  T/C: 95 % of control
[8]
  T/C: 100 % of control

## Cc1cc2oc(=O)c3c(c2c(O)c1CN1CCCC1)CCCC3
[13]
  T/C: 92 % of control
[14]
  T/C: 89 % of control
[15]
  T/C: 98 % of control

## Cc1c(Cl)c(C)c(Cl)c(O)c1Cl (tested in a mixture with another compound)
[3]
  T/C: 97 % of control
[4]
  T/C: 93 % of control
dose: 100.0 mg/kg/injection, schedule: Q04DX002 (ip), vehicle: other
  T/C: 95 % of control
dose: 200.0 mg/kg/injection, schedule: Q04DX002 (ip), vehicle: other
  T/C: 90 % of control

## O=C1OC(c2ccc([N+](=O)[O-])cc2)=N/C1=C\c1ccc(O)cc1
[16]
  T/C: 96 % of control
[17]
  T/C: 96 % of control
[18]
  T/C: 90 % of control

## c1ccc(CNc2ccccc2)cc1
dose: 100.0 mg/kg/injection, schedule: Q01DX009 (sc), vehicle: olive oil, sesame oil, peanut oil
  T/C: 95 % of control
dose: 100.0 mg/kg/injection, schedule: Q04DX003 (sc), vehicle: olive oil, sesame oil, peanut oil
  T/C: 94 % of control
dose: 200.0 mg/kg/injection, schedule: Q01DX009 (sc), vehicle: olive oil, sesame oil, peanut oil
  T/C: 92 % of control
dose: 200.0 mg/kg/injection, schedule: Q04DX003 (sc), vehicle: olive oil, sesame oil, peanut oil
  T/C: 102 % of control
dose: 400.0 mg/kg/injection, schedule: Q01DX009 (sc), vehicle: olive oil, sesame oil, peanut oil
  T/C: 100 % of control
dose: 400.0 mg/kg/injection, schedule: Q04DX003 (sc), vehicle: olive oil, sesame oil, peanut oil
  T/C: 105 % of control

## O=C(Nc1ccc(NC2=NCCN2)cc1)c1ccc(C(=O)Nc2ccc(NC3=NCCN3)cc2)c([N+](=O)[O-])c1
dose: 1.88 mg/kg/injection, schedule: Q01DX Z (ip), vehicle: saline
  T/C: 92 % of control
dose: 3.75 mg/kg/injection, schedule: Q01DX Z (ip), vehicle: saline
  T/C: 97 % of control
dose: 7.5 mg/kg/injection, schedule: Q01DX Z (ip), vehicle: saline
  T/C: 106 % of control
dose: 7.5 mg/kg/injection, schedule: Q01DX Z (oral), vehicle: saline
  T/C: 94 % of control
dose: 15.0 mg/kg/injection, schedule: Q01DX Z (ip), vehicle: saline
  T/C: 110 % of control and 89 % of control
dose: 15.0 mg/kg/injection, schedule: Q01DX Z (oral), vehicle: saline
  T/C: 95 % of control
dose: 30.0 mg/kg/injection, schedule: Q01DX Z (oral), vehicle: saline
  T/C: 91 % of control
dose: 60.0 mg/kg/injection, schedule: Q01DX Z (oral), vehicle: saline
  T/C: 100 % of control

## O=C(Nc1ccc(F)c([N+](=O)[O-])c1)Nc1cccc2c(O)cccc12
[16]
  T/C: 101 % of control
[17]
  T/C: 103 % of control
[18]
  T/C: 97 % of control

## O=C1NC(=O)C(c2ccc(F)cc2)N1 (stereo not drawn)
dose: 50.0 mg/kg/injection, schedule: Q01DX001 (ip), vehicle: saline
  T/C: 100 % of control
[13]
  T/C: 100 % of control
[14]
  T/C: 97 % of control
[15]
  T/C: 97 % of control

## COC1OC2COc3ccccc3OC2C2NC12 (stereo not drawn)
[9]
  T/C: 98 % of control
[10]
  T/C: 105 % of control
[11]
  T/C: 102 % of control

## Cc1ccc(NC2=CCC(=O)OC2=O)cc1
[19]
  T/C: 93 % of control
[20]
  T/C: 100 % of control
[21]
  T/C: 88 % of control
[22]
  T/C: 105 % of control
[16]
  T/C: 90 % of control
[23]
  T/C: 97 % of control
[17]
  T/C: 97 % of control
[24]
  T/C: 97 % of control
[18]
  T/C: 88 % of control
[25]
  T/C: 92 % of control

## CCCCN(CCCC)S(=O)(=O)CC
dose: 100.0 mg/kg/injection, schedule: Q04DX002 (ip), vehicle: saline with Tween-80
  T/C: 100 % of control
dose: 200.0 mg/kg/injection, schedule: Q04DX002 (ip), vehicle: saline with Tween-80
  T/C: 98 % of control
dose: 400.0 mg/kg/injection, schedule: Q04DX002 (ip), vehicle: saline with Tween-80
  T/C: 95 % of control

## Oc1cc(N2CC2)c(O)cc1N1CC1
dose: 0.3 mg/kg/injection, schedule: Q01DX009 (ip), vehicle: saline
  T/C: 154 % of control
dose: 0.5 mg/kg/injection, schedule: Q01DX009 (ip), vehicle: saline
  T/C: 118 % of control

## C/C=C\C(C)C(C)C (stereo not drawn)
dose: 50.0 mg/kg/injection, schedule: Q01DX009 (ip), vehicle: saline
  T/C: 93 % of control
[1]
  T/C: 97 % of control
[2]
  T/C: 93 % of control

## O=C(O)c1cccnc1
[19]
  T/C: 103 % of control
[20]
  T/C: 91 % of control
[21]
  T/C: 100 % of control
[22]
  T/C: 89 % of control
[16]
  T/C: 96 % of control
[23]
  T/C: 100 % of control
[17]
  T/C: 95 % of control
[24]
  T/C: 91 % of control
[25]
  T/C: 107 % of control

## CN(C)C=NC1(c2ccccc2)CCCCC1
[3]
  T/C: 96 % of control
[4]
  T/C: 96 % of control

## OCCC#CCCCOC1CCCCO1 (stereo not drawn)
[9]
  T/C: 105 % of control
[10]
  T/C: 90 % of control
[11]
  T/C: 93 % of control

## CCn1c2ccccc2c2cc(NC(C)=O)ccc21
[6]
  T/C: 103 % of control
[7]
  T/C: 98 % of control
[8]
  T/C: 101 % of control
